Test results from patent publication US20240018153A1, “BENZENESULFONAMIDE DERIVATIVES AND USES THEREOF” (2692372 ONTARIO, INC., priority 2020, published 2024).

Experiments:
[1] = target: FGFR4 (Homo sapiens (Human), UniProt P22455); experiment: HTRF KinEASE-TK kinase assay, FGFR4; type: biochemical; details: for remaining activity at 1 µM: read-out: % FGFR4 Remaining activity vs DMSO (1 μM, 3 h); for remaining activity at 10 µM: read-out: % FGFR4 Remaining activity vs DMSO (10 μM, 3 h)
In short: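 HTRF ratio (Em 665/620 nm) measured 60 min after EDTA stop with SA-XL665 (31.25 nM) and europium antibody reflects phosphorylated biotinylated substrate. Before substrate/ATP addition, 5.12 nM (0.333 ng/ul) FGFR4 sat with compound 3 h at room temperature.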

[2] = target: BMX (Homo sapiens (Human), UniProt P51813); experiment: HTRF KinEASE-TK kinase assay, BMX; type: biochemical; details: for remaining activity at 1 µM: 1 uM compound; for remaining activity at 1 µM / remaining activity at 10 µM: 3 h preincubation; for remaining activity at 10 µM: 10 uM compound
Chain of BMX (P51813 whole entry): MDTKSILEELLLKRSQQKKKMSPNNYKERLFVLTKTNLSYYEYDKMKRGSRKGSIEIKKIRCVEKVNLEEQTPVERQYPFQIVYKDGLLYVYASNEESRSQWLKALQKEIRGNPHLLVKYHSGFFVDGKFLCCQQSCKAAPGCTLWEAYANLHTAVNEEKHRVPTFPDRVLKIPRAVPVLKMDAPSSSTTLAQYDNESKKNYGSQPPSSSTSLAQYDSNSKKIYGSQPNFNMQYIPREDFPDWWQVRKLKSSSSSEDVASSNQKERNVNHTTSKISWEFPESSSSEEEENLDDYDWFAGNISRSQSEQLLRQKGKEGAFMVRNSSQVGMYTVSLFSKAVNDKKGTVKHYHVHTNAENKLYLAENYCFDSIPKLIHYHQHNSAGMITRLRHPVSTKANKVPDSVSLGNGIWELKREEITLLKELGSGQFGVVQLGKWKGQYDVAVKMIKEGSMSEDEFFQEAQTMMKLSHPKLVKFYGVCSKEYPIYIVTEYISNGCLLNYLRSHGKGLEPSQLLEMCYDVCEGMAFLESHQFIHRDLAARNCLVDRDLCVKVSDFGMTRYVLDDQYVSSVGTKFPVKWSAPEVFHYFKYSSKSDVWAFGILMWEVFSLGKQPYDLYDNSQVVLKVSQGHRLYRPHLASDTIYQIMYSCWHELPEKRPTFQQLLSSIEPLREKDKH
In short: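 Phosphorylation was quantified by HTRF KinEASE-TK as the 665/620 nm ratio, read 60 min after EDTA stop with SA-XL665 (31.25 nM) and europium antibody. Before the reaction, 3.03 nM BMX was preincubated with compound for 3 hours at room temperature, and the reaction was started with biotinylated substrate plus ATP.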

[3] = target: BTK (Homo sapiens (Human), UniProt Q06187); experiment: HTRF KinEASE-TK kinase assay, BTK; type: biochemical; details: 3 h preincubation; for remaining activity at 1 µM: 1 μM compound, read-out: % BTK Remaining activity vs DMSO (1 μM, 3 h); for remaining activity at 10 µM: 10 μM compound, read-out: % BTK Remaining activity vs DMSO (10 μM, 3 h)
Chain of BTK (Q06187 whole entry): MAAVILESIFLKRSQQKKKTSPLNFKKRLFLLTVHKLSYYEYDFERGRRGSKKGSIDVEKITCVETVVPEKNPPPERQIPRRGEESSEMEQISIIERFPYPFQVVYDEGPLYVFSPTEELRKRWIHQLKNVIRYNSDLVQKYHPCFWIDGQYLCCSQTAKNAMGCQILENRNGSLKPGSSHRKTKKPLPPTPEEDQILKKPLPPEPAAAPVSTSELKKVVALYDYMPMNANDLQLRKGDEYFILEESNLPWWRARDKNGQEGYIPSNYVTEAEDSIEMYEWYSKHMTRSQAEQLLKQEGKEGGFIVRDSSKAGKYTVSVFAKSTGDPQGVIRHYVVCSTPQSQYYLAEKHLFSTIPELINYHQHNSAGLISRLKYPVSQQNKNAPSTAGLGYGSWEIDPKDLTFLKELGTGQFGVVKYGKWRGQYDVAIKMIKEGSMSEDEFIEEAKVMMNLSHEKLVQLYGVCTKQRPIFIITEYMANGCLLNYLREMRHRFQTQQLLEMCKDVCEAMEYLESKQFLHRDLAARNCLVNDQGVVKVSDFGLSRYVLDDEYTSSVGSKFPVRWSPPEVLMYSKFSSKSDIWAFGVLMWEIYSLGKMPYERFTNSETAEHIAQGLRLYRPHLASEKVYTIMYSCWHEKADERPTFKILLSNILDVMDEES
In short: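 Read-out was the 665 nm to 620 nm ratio, taken 60 min after detection, reflecting phosphorylated biotinylated substrate. Before this, BTK reacted 45 min with substrate and ATP in kinase buffer supplemented with MnCl2 (10 mM), MgCl2 (5 mM), ATPγS (1 uM) and TCEP (1 mM).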

[4] = target: His-tagged BTK protein (SEQ ID NO: 1) (Homo sapiens (Human), UniProt Q06187); experiment: Intact mass analysis (LC-MS/MS) of covalent modification; type: binding; details: His-tagged BTK (unmodified 32,650 Da) incubated with compound
Chain of His-tagged BTK protein (SEQ ID NO: 1) (Q06187 other isoform, or with tags, fused parts or gaps): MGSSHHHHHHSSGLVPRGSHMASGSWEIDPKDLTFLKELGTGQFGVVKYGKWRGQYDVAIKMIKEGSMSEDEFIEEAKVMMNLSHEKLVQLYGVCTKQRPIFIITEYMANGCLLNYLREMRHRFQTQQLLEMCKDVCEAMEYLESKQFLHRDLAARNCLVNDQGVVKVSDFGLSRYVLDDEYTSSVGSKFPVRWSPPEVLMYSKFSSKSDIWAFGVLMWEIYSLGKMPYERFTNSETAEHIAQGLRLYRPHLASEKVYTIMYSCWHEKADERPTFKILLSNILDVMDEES
Procedure: The covalent modification of the proteins with the compounds were evaluated using intact mass analysis by liquid chromatography-mass spectrometry instrument (LC-MS/MS).
The reaction solution (20 μL) was prepared in 96-well plate and contained the protein (2 μM), the compound (100 μM), HEPES buffer (20 mM, pH 8), 2% DMSO, 2% glycerol, and 150 mM NaCl. The reaction was allowed to proceed for 24 h at 25° C. The reaction solution (1 μL) was injected into the LC/MS/MS without any further sample preparation.
The LC-MS/MS instrument comprises of a Waters G2-XS quadrupole-time of flight (QTof) mass spectrometer and a Waters Acuity I-class Ultra-High Performance Liquid Chromatography (UPLC) system. The I-class UPLC system includes a binary solvent manager (BSM), and a Acquity sample manager (SM). The mobile phase consisted of: A) 0.1% (v/v) formic acid in MilliQ water; B) 0.1% (v/v) formic acid acetonitrile. Gradients were run over 5 min and proceeded as follows: A:B, 85:15, 0.0-0.7 min, 85:15→15:85, 0.7-1.5 min, 10:90, 1.5-4 min, 10:90→85:15, 4-4.5 min, 85:15, 4.5-5 min. The analytical column was a Waters BEH C4 column 1.7 μm (50×1 mm) column with pore sizes of […]. The TOF MS data was collected in positive ion mode (m/z of 400-2000 Da) using MassLynx software (Waters).
The spectral deconvolution was performed using UNIFI software (Waters). The added mass of the protein upon covalent modification to cysteine residues were specified. Multiple modification of up to 8 cysteine was allowed. All the adducts with signal intensities of <2% of the base peak were ignored. The % modification was calculated as the adduct signal intensity over the total intensities of the protein peaks and the adducts.

[5] = target: JAK3 (Homo sapiens (Human), UniProt P52333); experiment: HTRF KinEASE-TK kinase assay, JAK3; type: biochemical; details: for remaining activity at 1 µM: read-out: % JAK3 Remaining activity vs DMSO (1 μM, 3 h); for remaining activity at 10 µM: read-out: % JAK3 Remaining activity vs DMSO (10 μM, 3 h)
Chain of JAK3 (P52333 781-1124): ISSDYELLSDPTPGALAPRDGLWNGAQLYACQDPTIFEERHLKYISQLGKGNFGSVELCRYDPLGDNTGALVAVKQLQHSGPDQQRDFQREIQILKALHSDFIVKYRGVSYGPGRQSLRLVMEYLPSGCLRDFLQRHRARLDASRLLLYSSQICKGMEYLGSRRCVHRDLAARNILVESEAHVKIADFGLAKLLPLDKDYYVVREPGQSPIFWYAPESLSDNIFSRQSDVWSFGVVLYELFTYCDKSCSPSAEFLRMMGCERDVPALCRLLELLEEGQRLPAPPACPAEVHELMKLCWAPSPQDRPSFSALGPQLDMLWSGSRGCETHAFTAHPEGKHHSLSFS
In short: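 HTRF read-out: the Em665/Em620 ratio, measured 60 min after stopping with EDTA, 31.25 nM SA-XL665 and 100-fold diluted Eu-antibody, was taken as phosphorylated substrate. Beforehand, 0.21 nM JAK3 (0.0133 ng/µl) sat with compound for 3 h at room temperature, then biotinylated substrate plus ATP started the reaction.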

[6] = target: EGFR (Homo sapiens (Human), UniProt P00533); experiment: HTRF KinEASE-TK kinase assay, EGFR; type: biochemical; details: 3 h preincubation; for remaining activity at 1 µM: 1 μM compound, read-out: % EGFR Remaining activity vs DMSO (1 μM, 3 h); for remaining activity at 10 µM: 10 μM compound, read-out: % EGFR Remaining activity vs DMSO (10 μM, 3 h)
Chain of EGFR (P00533 25-1210): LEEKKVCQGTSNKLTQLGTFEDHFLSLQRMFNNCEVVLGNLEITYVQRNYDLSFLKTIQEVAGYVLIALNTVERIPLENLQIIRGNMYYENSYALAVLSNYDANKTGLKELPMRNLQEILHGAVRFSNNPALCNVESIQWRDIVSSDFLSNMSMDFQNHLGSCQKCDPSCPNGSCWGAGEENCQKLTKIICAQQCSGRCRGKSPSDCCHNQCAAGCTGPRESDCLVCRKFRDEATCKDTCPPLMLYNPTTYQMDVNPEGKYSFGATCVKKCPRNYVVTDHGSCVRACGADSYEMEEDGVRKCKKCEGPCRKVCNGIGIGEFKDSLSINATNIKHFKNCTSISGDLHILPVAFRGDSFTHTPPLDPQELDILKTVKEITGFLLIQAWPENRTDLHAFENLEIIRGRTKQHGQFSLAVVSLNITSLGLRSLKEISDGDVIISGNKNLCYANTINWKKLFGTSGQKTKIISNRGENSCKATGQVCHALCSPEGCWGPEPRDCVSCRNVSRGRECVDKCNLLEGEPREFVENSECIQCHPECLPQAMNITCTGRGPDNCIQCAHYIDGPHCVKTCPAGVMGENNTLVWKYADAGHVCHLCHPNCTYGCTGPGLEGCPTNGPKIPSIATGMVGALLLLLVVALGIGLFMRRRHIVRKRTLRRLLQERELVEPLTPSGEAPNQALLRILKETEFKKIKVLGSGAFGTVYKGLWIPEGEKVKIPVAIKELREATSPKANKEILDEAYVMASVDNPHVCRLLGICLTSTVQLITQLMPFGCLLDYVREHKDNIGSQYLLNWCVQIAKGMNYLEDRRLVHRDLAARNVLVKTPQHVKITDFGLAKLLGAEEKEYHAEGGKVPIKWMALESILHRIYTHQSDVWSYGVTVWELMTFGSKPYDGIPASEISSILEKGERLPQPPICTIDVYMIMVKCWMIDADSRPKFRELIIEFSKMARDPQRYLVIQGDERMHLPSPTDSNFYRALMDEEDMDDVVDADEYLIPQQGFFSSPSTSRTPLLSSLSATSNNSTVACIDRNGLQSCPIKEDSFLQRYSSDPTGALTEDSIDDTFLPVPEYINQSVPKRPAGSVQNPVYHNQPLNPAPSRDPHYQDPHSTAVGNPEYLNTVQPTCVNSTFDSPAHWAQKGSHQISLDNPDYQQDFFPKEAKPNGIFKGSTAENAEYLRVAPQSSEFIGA
In short: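 Buffer contained 5 mM MgCl2, 2 mM MnCl2 and 1 mM TCEP; compounds at two final concentrations, 1 and 10 uM, with 0.5% DMSO, pre-incubated with the enzyme.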

Chain of FGFR4 (P22455 22-802): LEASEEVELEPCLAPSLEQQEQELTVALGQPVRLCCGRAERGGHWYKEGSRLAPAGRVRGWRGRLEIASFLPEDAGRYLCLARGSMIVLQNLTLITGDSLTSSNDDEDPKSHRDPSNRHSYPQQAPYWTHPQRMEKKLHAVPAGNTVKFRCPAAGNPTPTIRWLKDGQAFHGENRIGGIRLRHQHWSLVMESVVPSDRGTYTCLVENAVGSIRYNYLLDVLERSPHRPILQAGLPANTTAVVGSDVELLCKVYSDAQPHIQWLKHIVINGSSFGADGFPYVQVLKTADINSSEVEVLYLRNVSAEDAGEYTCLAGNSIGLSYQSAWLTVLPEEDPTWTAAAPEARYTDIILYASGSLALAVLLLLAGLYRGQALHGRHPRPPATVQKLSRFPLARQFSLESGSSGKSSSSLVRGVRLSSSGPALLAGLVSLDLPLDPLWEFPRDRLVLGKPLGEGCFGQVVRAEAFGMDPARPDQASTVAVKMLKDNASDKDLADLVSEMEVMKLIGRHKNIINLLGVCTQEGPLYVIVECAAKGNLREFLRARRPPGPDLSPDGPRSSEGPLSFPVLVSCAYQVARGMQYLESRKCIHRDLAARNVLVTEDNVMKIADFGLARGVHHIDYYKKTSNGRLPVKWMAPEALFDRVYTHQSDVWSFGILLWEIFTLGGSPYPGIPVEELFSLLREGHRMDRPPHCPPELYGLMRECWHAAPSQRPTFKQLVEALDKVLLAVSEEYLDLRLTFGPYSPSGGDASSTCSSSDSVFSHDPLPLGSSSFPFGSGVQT

| remaining activity at 1 µM [1] [%] | remaining activity at 10 µM [1] [%] | remaining activity at 1 µM [2] [%] | remaining activity at 10 µM [2] [%] | remaining activity at 1 µM [3] [%] | remaining activity at 10 µM [3] [%] | covalent adduct mass (intact mass analysis, modification by one molecule) [4] | IC50 ([5]; dose response) [nM] | remaining activity at 1 µM [5] [%] | remaining activity at 10 µM [5] [%] | remaining activity at 1 µM [6] [%] | remaining activity at 10 µM [6] [%] | IC50 ([2]; dose response) [nM] | SMILES |
| --- | --- | --- | --- | --- | --- | --- | --- | --- | --- | --- | --- | --- | --- |
| 50 to 90 | < 50 | < 50 | < 50 | < 50 | < 50 | 33,243 Da | < 1000 | < 50 | < 50 | > 90 | > 90 |  | COCCOc1ccc(Nc2ncc(F)c(NCCCNS(=O)(=O)c3c(F)c(F)c(F)c(F)c3OC(F)F)n2)cc1 [Compound I-55, 2-(difluoromethoxy)-3,4,5,6-tetrafluoro-N-(3-((5-fluoro-2-((4-(2-methoxyethoxy)phenyl)amino)pyrimidin-4-yl)amino)propyl)benzenesulfonamide] |
| 50 to 90 | < 50 | < 50 | < 50 | < 50 | < 50 | 33,209 Da |  | < 50 | < 50 | > 90 | > 90 | < 1000 | COCCOc1ccc(Nc2ncc(F)c(NCCCNS(=O)(=O)c3c(F)c(F)c(F)c(F)c3CF)n2)cc1 [Compound I-56, 2,3,4,5-tetrafluoro-N-(3-((5-fluoro-2-((4-(2-methoxyethoxy)phenyl)amino)pyrimidin-4-yl)amino)propyl)-6-(fluoromethyl)benzenesulfonamide] |
